From paper PMC6445123 (Scientific Reports, 2019)
Residue numbers refer to the chain shown, from its start. Where “and” joins values, the source holds several entries; their conditions need not be identical. Equal entries are not always repeated.

Legend:
Casp6-L200A-LS-SS = target: T1, Casp6-L200A-LS-SS (Homo sapiens, UniProt P55212, L200A); assay: C13 dose-response and global-fit kinetics on Casp6-L200A-LS-SS; format: biochemical
T1 construct: obtained by co-expression and purification of LS and SS subunits of WT, L200A or K284A Casp6 from E. coli; His (C); made in house; host or cells: E. coli BL21(DE3)pLysS
T1 sequence (P55212 24-179 limits assumed): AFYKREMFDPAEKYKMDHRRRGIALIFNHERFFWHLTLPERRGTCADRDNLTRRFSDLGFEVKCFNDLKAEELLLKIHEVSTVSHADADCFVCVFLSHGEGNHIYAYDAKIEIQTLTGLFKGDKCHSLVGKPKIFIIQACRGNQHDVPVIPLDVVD
T1 sequence (P55212 194-293 L200A limits assumed): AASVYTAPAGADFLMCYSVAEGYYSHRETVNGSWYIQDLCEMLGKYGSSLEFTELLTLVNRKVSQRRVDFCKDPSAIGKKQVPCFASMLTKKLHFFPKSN
Text: Figure 4 Compounds S10G and C13 inhibit Casp6 through a noncompetitive mode of inhibition. (a) Michaelis-Menten kinetic plots of Casp6 enzymatic activity in presence of 1% DMSO or increasing doses S10G (top) and C13 (bottom). Data points represent mean ± SD of three independent experiments. (b) Lineweaver-Burk plots of Casp6 inhibition with S10G (top) and C13 (bottom). Red circle indicates the point where lines converge. (c) The relationship between the slopes of lines in Lineweaver-Burk plot analyses in panel (b) and inhibitor concentration. (d) Plots of IC50 values for S10G (top) and C13 (bottom) with varying concentrations of Ac-VEID-AFC substrate. Data points represent mean ± SD from three independent experiments for each substrate concentration. (e) Binding model of C13 into CASP6 putative allosteric site, derived from molecular docking. Left: C13 (green sticks) occupies the putative allosteric site (white surface and lines; Ala-mutated residues L200 and K284 shown as purple sticks). Right: predicted interactions with Casp6 allosteric pocket residues (pink balls polar, circled blue or red for basic and acidic, respectively. Green balls = hydrophobic. Dotted-arrow: blue and green for backbone and sidechain hydrogen-bond interactions, respectively. Blue shade = solvent exposed area). Dose-response curves of C13 for Casp6-WT and Casp6-K284A (f), and copurified LS and SS of Casp6-WT-LS-SS, Casp6-L200A-LS-SS, and Casp6-K284A-LS-SS (g). Data represent mean ± SD from at least three independent experiments. (h) Global fit of kinetics data to a noncompetitive (mixed) inhibition model for Casp6-WT-LS-SS (left panel, R^2 = 0.9635), Casp6-L200A-LS-SS (middle panel, R^2 = 0.9699), and Casp6-K284A-LS-SS (right panel, R^2 = 0.9794) in the presence of 0–50 µM C13. Data points on the graph represent the mean ± SD, and calculated Ki values represent mean ± standard error (SE) from three independent experiments.
To determine the importance of C13 interactions with L200 and K284 for C13 binding in the Casp6 allosteric pocket, we have generated Casp6-L200A and Casp6-K284A mutants and investigated inhibition with C13. […]
(§1) Compounds, S10G (2.5 µM, 4.2 µM, 10 µM), and C13 (5 µM, 14 µM, 50 µM), were added to 20 nM active site titrated Casp6 and enzyme activity was measured with eight different Ac-VEID-AFC substrate concentrations (5.0 μM–200 μM) using fluorescence-based Casp6 activity assay as above. The apparent KM and Vmax values were determined through nonlinear regression analysis of Michaelis-Menten plots (v vs. [S]) using GraphPad Prism 5. The inhibition mode was determined from the pattern of converging Lineweaver-Burk plots (1/v vs. 1/[S])[54]. […]

Casp6-WT-LS-SS = target: T2, Casp6-WT-LS-SS (Homo sapiens, UniProt P55212); assay: C13 dose-response and global-fit kinetics on Casp6-WT-LS-SS; format: biochemical
T2 construct: obtained by co-expression and purification of LS and SS subunits of WT, L200A or K284A Casp6 from E. coli; His (C); made in house; host or cells: E. coli BL21(DE3)pLysS
T2 sequence (P55212 24-179 limits assumed): T1 sequence (P55212 24-179 limits assumed)
T2 sequence (P55212 194-293 limits assumed): T1 sequence (P55212 194-293 L200A limits assumed) with A7L
Text: (§2) Figure 4 Compounds S10G and C13 inhibit Casp6 through a noncompetitive mode of inhibition. (a) Michaelis-Menten kinetic plots of Casp6 enzymatic activity in presence of 1% DMSO or increasing doses S10G (top) and C13 (bottom). Data points represent mean ± SD of three independent experiments. (b) Lineweaver-Burk plots of Casp6 inhibition with S10G (top) and C13 (bottom). Red circle indicates the point where lines converge. (c) The relationship between the slopes of lines in Lineweaver-Burk plot analyses in panel (b) and inhibitor concentration. (d) Plots of IC50 values for S10G (top) and C13 (bottom) with varying concentrations of Ac-VEID-AFC substrate. Data points represent mean ± SD from three independent experiments for each substrate concentration. (e) Binding model of C13 into CASP6 putative allosteric site, derived from molecular docking. Left: C13 (green sticks) occupies the putative allosteric site (white surface and lines; Ala-mutated residues L200 and K284 shown as purple sticks). Right: predicted interactions with Casp6 allosteric pocket residues (pink balls polar, circled blue or red for basic and acidic, respectively. Green balls = hydrophobic. Dotted-arrow: blue and green for backbone and sidechain hydrogen-bond interactions, respectively. Blue shade = solvent exposed area). […] Data points on the graph represent the mean ± SD, and calculated Ki values represent mean ± standard error (SE) from three independent experiments. […]
as §1

Casp6-K284A [1] = target: T3, Casp6-K284A (Homo sapiens, UniProt P55212, K284A); assay: C13 dose-response, fluorescence-based activity assay on Casp6-K284A; format: biochemical; conditions: Casp6-K284A; read-out: IC50 of C13 for Casp6-K284A (Fig. 4f)
T3 construct: it only partially self-cleaved at the TEVD193 site generating ΔCasp6, LS-L and SS fragments; His (C); made in house; host or cells: E. coli BL21(DE3)pLysS
T3 sequence (P55212 24-193): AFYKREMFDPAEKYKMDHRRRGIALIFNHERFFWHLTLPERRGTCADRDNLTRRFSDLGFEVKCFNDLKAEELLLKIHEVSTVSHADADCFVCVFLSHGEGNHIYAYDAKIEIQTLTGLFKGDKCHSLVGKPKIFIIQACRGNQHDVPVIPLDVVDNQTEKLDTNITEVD
T3 sequence (P55212 194-293 K284A): T1 sequence (P55212 194-293 L200A limits assumed) with A7L, K91A
Text: as §2, with “sticks).” for “sticks). Right: predicted interactions with Casp6 allosteric pocket residues (pink balls polar, circled blue or red for basic and acidic, respectively. Green balls = hydrophobic. Dotted-arrow: blue and green for backbone and sidechain hydrogen-bond interactions, respectively. Blue shade = solvent exposed area).”

Casp6-K284A [2] = assay: as above; format: biochemical, human
Text: as §2, with “sticks).” for “sticks). Right: predicted interactions with Casp6 allosteric pocket residues (pink balls polar, circled blue or red for basic and acidic, respectively. Green balls = hydrophobic. Dotted-arrow: blue and green for backbone and sidechain hydrogen-bond interactions, respectively. Blue shade = solvent exposed area).”

[3] = Ac-VEID-AFC hydrolysis, increasing substrate and C13 concentrations
[4] = global fit to noncompetitive (mixed) model, 0–50 µM C13, mean ± SE

fold lower IC50 for Casp6-L200A-LS-SS compared to Casp6-WT-LS-SS (Casp6-L200A-LS-SS): 1.4 fold
inhibition model (best global fit), Casp6-L200A-LS-SS (Casp6-L200A-LS-SS; [3]): noncompetitive (mixed) model inhibition
IC50 (Casp6-L200A-LS-SS; copurified LS and SS, read-out: IC50 of C13 for Casp6-L200A-LS-SS (Fig. 4g)): 23.4 ± 4.5 µM
Ki (Casp6-L200A-LS-SS; [4]): 6.82 µM and 6.8 µM
inhibition model (best global fit), Casp6-WT-LS-SS (Casp6-WT-LS-SS; [3]): noncompetitive (mixed) model inhibition
IC50 (Casp6-WT-LS-SS; copurified LS and SS, read-out: IC50 of C13 for Casp6-WT-LS-SS (Fig. 4g)): 31.8 ± 6.7 µM
Ki (Casp6-WT-LS-SS; [4]): 7.45 µM and 7.5 µM
IC50 (Casp6-K284A [1]): 46.7 ± 18.5 µM
fold higher IC50 for Casp6-K284A than Casp6-WT (Casp6-K284A [2]): ~ 2.7 fold
SMILES: COC(=O)c1cc(CNC(=O)C2Cc3ccccc3O2)cc(NC(=O)c2ccco2)c1 (stereo not drawn) [Compound C13]
